Patent publication US20090270312A1, “HIV-I GP41 FUSION PEPTIDES FOR IMMUNOMODULALTION” (priority 2005, published 2009)
Residues, ends and D or L forms follow the SMILES beside them.

Legend:
lymph node cells (LNC) [1] = assay: T-cell proliferation of mice LNC with MOG 35-55 peptide antigen; type: cell-based; conditions: MOG35-55 peptide
lymph node cells (LNC) [2] = assay: Cell survival in culture with peptide; type: cell-based, rat; conditions: cells incubated with peptide
lymph node cells (LNC) [3] = assay: T-cell proliferation of LNC from Mt immunized rats ([methyl-3H]-thymidine incorporation); type: cell-based; conditions: rat LNC, PPD 25 μg/ml
Description: T-cell proliferation. T-cell proliferation assays were performed using either lymph node cells (LNC) or the A2b T cell line, which reacts with the Mt176-90 peptide. Popliteal and inguinal LNC were removed 26 days after the injection of Mt in incomplete Freund's adjuvant (IFA), when strong T cell responses to PPD and Mt176-90 are detectable (Quintana et al., 2002). LNC were cultured at a concentration of 2×10^5 cells per well; 5×10^4 A2b T cells were stimulated in the presence of irradiated 5×10^5 thymic antigen presenting cells (APC) per well, prepared as previously described (van Eden et al., 1985). The cells were plated in quadruplicates in 200 μl round bottom microtiter wells (Costar Corp., Cambridge, USA), with or without antigen, in the presence of various concentrations of the peptides under study. For some experiments, the cells were activated with immobilized anti-CD3 antibodies or PMA/ionomycin as described (Wang et al., 2002). Cultures were incubated for 72 hr at 37° C. in a humidified atmosphere of 7.5% CO2. T-cell responses were detected by the incorporation of [methyl-3H]-thymidine (Amersham, Buckinghamshire, UK; 1 μCi/well), added during the last 18 hr of incubation. The results of T cell proliferation experiments are shown as the % of inhibition of the T cell proliferation triggered by the antigenin the absence of HIV or control peptides. […]

Lewis rats = assay: Adjuvant Arthritis (AA); type: in vivo, rat; conditions: 100 μg peptide in IFA with Mt at AA induction
Description: Induction and Assessment of Adjuvant Arthritis (AA). To test the effect of FP on T-cell activation in vivo, AA was used as a model system. AA was induced by injecting 50 μl of Mt suspended in IFA (0.5 mg/ml) at the base of the tail. At the time of AA induction, each rat also received 100 μg of FP or control peptide, or PBS dissolved in 50 μl of IFA and mixed with Mt/IFA used to induce AA. The day of AA induction was designated as day 0. Disease severity was assessed by direct observation of all 4 limbs in each animal. A relative score between 0 and 4 was assigned to each limb, based on the degree of joint inflammation, redness and deformity; thus the maximum possible score for an individual animal was 16 (Quintana et al., 2002). The mean AA score (±SEM) is shown for each experimental group. Arthritis was also quantified by measuring hind limb diameter with a caliper. Measurements were taken on the day of the induction of AA and 26 days later (at the peak of AA); the results are presented as the mean±SEM of the difference between the two values for all the animals in each group. The person who scored the disease was blinded to the identity of the groups.
AA was induced in rats as indicated above; at the time of AA induction, each rat also received 100 μg of IFFA or PBS dissolved in 50 μl of IFA and mixed with Mt/IFA used to induce AA. Disease severity was assessed as described above.

gp41 = gp41 (Human immunodeficiency virus type 1 group M subtype B, UniProt P04578); conditions: effect of incorporation of D amino acids; cited from earlier work
Balb/c mice = assay: DTH response to oxazolone, dermal treatment; type: in vivo; conditions: 100 μg in 40 μl DMSO on the ear one hour after challenge, measured 24 h after challenge
Description: In other experiments, DTH response to oxazolone in the presence of FP and IFFA was measured. Female Balb/c mice (5 mice per group) were sensitized to the shaved abdominal skin with 100 microliter of 2% oxazolone dissolved in acetone/olive oil (4:1 vol/vol) applied topically, and 5 days later challenged with 20 microliter of 0.5% oxazolone in acetone/olive oil, 10 microliter administered to each side of the ear. One hour after stimulation, FP, IFFA (100 μg in 40 μl DMSO) or DMSO were administered to each side of the ear. A constant area of the ear was measured immediately before challenge and 24 h after challenge.

LNC from injected rats = assay: T cell immunity to the injected peptide: IFN-γ secretion of LNC incubated ex vivo with the same peptide; type: in vivo, rat
From the text: Cytokine assays. Supernatants were collected after 72 hr of stimulation, and rat IL-10 and IFNγ were quantified by enzyme-linked immunosorbent assay (ELISA) using Pharmingen's OPTEIA kit (Pharmingen, San Diego, USA) as described (Quintana et al., 2002). When needed, cytokine levels are expressed as percentage of cytokine inhibition relative to cytokine levels when no peptide is present. Otherwise, the cytokines are shown as pg/ml. The lower limits of detection for the experiments described in this paper were 15 pg/ml for IL-10 and IFNγ. Cytokine amounts were calculated based on calibration curves constructed using recombinant cytokines as standards.
Rats were injected with FP, a control peptide (V2E or IFFA) or PBS in the presence of Mt and IFA. Twenty six days later, LNC were collected and incubated ex vivo with FP, V2E, IFFA, or PBS, respectively, and their IFN-γ secretion level was determined. […] LNC (incubated with PBS). […] Thus, the immunosuppressive effect of FP is sequence and structure specific.

Chain of gp41 (P04578 512-856): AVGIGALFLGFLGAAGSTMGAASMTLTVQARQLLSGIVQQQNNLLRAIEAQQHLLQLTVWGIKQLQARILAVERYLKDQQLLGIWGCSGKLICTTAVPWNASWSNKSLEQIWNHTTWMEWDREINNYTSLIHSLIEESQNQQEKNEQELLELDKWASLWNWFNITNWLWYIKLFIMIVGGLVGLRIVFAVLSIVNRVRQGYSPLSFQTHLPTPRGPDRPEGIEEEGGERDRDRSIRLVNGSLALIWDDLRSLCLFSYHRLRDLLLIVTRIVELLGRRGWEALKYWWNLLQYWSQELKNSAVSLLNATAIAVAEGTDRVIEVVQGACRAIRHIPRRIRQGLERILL

Molecule: GALFLGFLG (Peptides derived of HIV-1 gp41) [FP5-13]
- inhibition of antigen-specific T cell proliferation (lymph node cells (LNC) [1]): inhibit antigen-specific T cell proliferation

Molecule: CC[C@H](C)[C@H](NC(=O)CNC(=O)[C@@H](NC(=O)[C@H](C)N)C(C)C)C(=O)NCC(=O)N[C@@H](C)C(=O)N[C@@H](CC(C)C)C(=O)N[C@@H](Cc1ccccc1)C(=O)N[C@@H](CC(C)C)C(=O)NCC(=O)N[C@@H](Cc1ccccc1)C(=O)N[C@@H](CC(C)C)C(=O)NCC(=O)N[C@@H](C)C(=O)N[C@@H](C)C(=O)NCC(=O)N[C@@H](CO)C(=O)N[C@H](C(=O)N[C@@H](CCSC)C(=O)NCC(=O)N[C@@H](C)C(=O)N[C@@H](CCCNC(=N)N)C(=O)N[C@@H](CO)C(=O)N[C@@H](CCSC)C(=O)N[C@H](C(=O)N[C@@H](CC(C)C)C(=O)N[C@H](C(=O)N[C@H](C(=O)N[C@@H](CCC(N)=O)C(=O)N[C@@H](C)C(=O)N[C@@H](CCCNC(=N)N)C(=O)N[C@@H](CCC(N)=O)C(=O)N[C@@H](CC(C)C)C(=O)O)C(C)C)[C@@H](C)O)[C@@H](C)O)[C@@H](C)O [FP]
- survival of cells in culture (lymph node cells (LNC) [2]): the same survival in culture

Molecule: AVGIGALF (Peptides derived of HIV-1 gp41) [FP1-8]
- inhibition of antigen-specific T cell proliferation (lymph node cells (LNC) [1]): inhibit antigen-specific T cell proliferation

Molecule: CC[C@H](C)[C@H](NC(=O)[C@H](CS)NC(=O)[C@H](CCCNC(=N)N)NC(=O)[C@H](CC(C)C)NC(=O)[C@H](CC(C)C)NC(=O)[C@H](C)NC(=O)[C@H](CS)NC(=O)CNC(=O)CNC(=O)CNC(=O)[C@H](CC(C)C)NC(=O)[C@@H](N)C(C)C)C(=O)N1CCC[C@H]1C(=O)N[C@@H](C)C(=O)N[C@@H](CC(C)C)C(=O)N[C@@H](CC(=O)O)C(=O)N[C@@H](CO)C(=O)N[C@@H](CC(C)C)C(=O)N[C@H](C(=O)N1CCC[C@H]1C(=O)N[C@@H](C)C(=O)N[C@@H](CC(N)=O)C(=O)N[C@@H](CCC(=O)O)C(=O)N[C@@H](CC(=O)O)C(=O)O)[C@@H](C)O [p277, reference compound] (H-VLGGGCALLRCIPALDSLTPANED-OH)
- survival of cells in culture (lymph node cells (LNC) [2]): the same survival in culture

Molecule: CC[C@H](C)[C@H](NC(=O)CNC(=O)[C@H](CCC(=O)O)NC(=O)[C@H](C)N)C(=O)NCC(=O)N[C@@H](C)C(=O)N[C@@H](CC(C)C)C(=O)N[C@@H](Cc1ccccc1)C(=O)N[C@@H](CC(C)C)C(=O)NCC(=O)N[C@@H](Cc1ccccc1)C(=O)N[C@@H](CC(C)C)C(=O)NCC(=O)N[C@@H](C)C(=O)N[C@@H](C)C(=O)NCC(=O)N[C@@H](CO)C(=O)N[C@H](C(=O)N[C@@H](CCSC)C(=O)NCC(=O)N[C@@H](C)C(=O)N[C@@H](CCCNC(=N)N)C(=O)N[C@@H](CO)C(=O)N[C@@H](CCSC)C(=O)N[C@H](C(=O)N[C@@H](CC(C)C)C(=O)N[C@H](C(=O)N[C@H](C(=O)N[C@@H](CCC(N)=O)C(=O)N[C@@H](C)C(=O)N[C@@H](CCCNC(=N)N)C(=O)N[C@@H](CCC(N)=O)C(=O)N[C@@H](CC(C)C)C(=O)O)C(C)C)[C@@H](C)O)[C@@H](C)O)[C@@H](C)O [V2E]
- survival of cells in culture (lymph node cells (LNC) [2]): the same survival in culture

Molecule: AVGIGALFLGFLGAAGSTMGARSMTLTVQARQL [IFFA]
- inhibition of antigen-specific T cell proliferation (lymph node cells (LNC) [3]): inhibit antigen-specific T cell proliferation
- arthritis, clinical score (Lewis rats): milder arthritis
- ability to inhibit gp41-mediated membrane fusion (gp41): does not affect its ability to inhibit gp41-mediated membrane fusion
- DTH reaction to oxazolone (Balb/c mice): inhibited the DTH reaction
- ex vivo activation relative to FP (LNC from injected rats; LNC collected 26 days after injection): about ten fold more than FP
- ex vivo activation (IFN-γ secretion) of LNC by the injected peptide (LNC from injected rats; LNC collected 26 days after injection with Mt and IFA): highly reactive to IFFA ex vivo
